Each structure is given as a SMILES string. Values after ≈ are worked out from the molar mass of the structure shown. Where a name gives a salt, the structure may show the parent alone.

One data set deals with human lung (A549). Kind of data set: In vitro microdilution inhibition, human lung A549. Conditions: A549, 72 hours, 50% of cells killed. In kind it is cell-based. From the text:
(§1) As shown in Table III the compounds of the present invention exert an in vitro antitumor effect. The following cells lines were employed: human lung (A549); resistant human lung with low topo II activity (A549-VP); murine melanoma (B16); human colon tumor (HCT116); human colon tumor with elevated p170 levels (HCTVM); human colon tumor with low topo II activity (HCTVP); and another human colon carcinoma cell line (Moser). In the Table, the designation "NT" indicates the compound was not tested against the specified cell line. The cell lines were maintained in continuous culture at 37°, 5% CO2 and high humidity. Cells were harvested in log phase growth and suspended at concentration of 25,000 cells/mL. A […] aliquot was then added to each well (i.e., 3,750 cells per well) of a 96-well flat bottom plate and the cells were allowed to attach over a 24 hour period. After this 24 hour incubation, a 50 μL sample of the specified compound was added to the first (top) well of each column, and the remaining wells of each column serially diluted, 1:4, and allowed to incubate for 72 hours at 37° C., 5% CO2 and high humidity. Following incubation, 50 μL of freshly prepared stain solution was added to each well. After a 3 hour incubation at room temperature, absorbance was read at 450 nm on a microplate reader to determine the compound concentration at which 50% of the cells were killed, such concentration referred to as the "IC50 ".
(In general: In broth dilution the organism is exposed to a series of concentrations in liquid medium.)

For data set [1], the system named is resistant human lung with low topo II activity (A549-VP). Nature of the data set: In vitro microdilution inhibition, resistant human lung A549-VP. It is filed as cell-based. To be noted: A549VP, 72 hours, 50% of cells killed.
Description: as §1

The next data set concerns murine melanoma (B16). Kind of data set: In vitro microdilution inhibition, B16. It is filed as cell-based. Conditions: Mus musculus; B16, 72 hours, 50% of cells killed.
Description: as §1

Data set [2] relates to human colon tumor (HCT116). Nature of the data set: In vitro microdilution inhibition, HCT116. In kind it is cell-based. To be noted: HCT-116, 72 hours, 50% of cells killed.
Description: as §1

Data set [3] has as its system human colon tumor with elevated p170 levels (HCTVM). Nature of the data set: In vitro microdilution inhibition, HCTVM. It is filed as cell-based. Conditions: 72 hours, 50% of cells killed.
Description: as §1

For data set [4], the system named is human colon tumor with low topo II activity (HCTVP). Kind of data set: In vitro microdilution inhibition, HCTVP. Conditions: 72 hours, 50% of cells killed. It is filed as cell-based.
Description: as §1

The test system of another data set is p388 murine leukemia. Kind of data set: In vivo activity against p388 murine leukemia in an acute mouse model. Conditions: for AWC (average weight change per mouse): before treatment to day five. On the procedure:
CDF1 mice of both sexes weighing between 16 and 25 gm. were used, with a 2 gm. weight range and same sex and source used per experiment. BDF1 mice also were used with the same weight, sex and source parameters. Control and test animals were injected interperitoneally with suspension of 1×10^6 p388 murine leukemia cells (0.5 mL dose) on day 0. Groups of 4-6 mice were used for each dosage amount they were treated with 5 doses on day one. A group of ten saline treated control mice was included in each set of experiments. A 30 day protocol was employed with mean survival time in days being determined for each group of mice with the number of survivors at the end of the 30 day period being noted. The mice were weighed before treatment and again on day five. The values listed for average weight change (AWC) is the average weight change per mouse at the specified dose. The change in weight was taken as a measure of drug toxicity. A loss in weight of up to 2 grams is not considered excessive. The results were determined in terms of % T/C which is the ratio of the mean survival time of the treated group to the mean survival time of the saline treated group times 100.

The mark [5] stands for this setting: Mus musculus, P388, 720 h, CDF1 (mixed sex), 5 mg/kg, read-out: % T/C (mean survival time treated/control).
Where [6] appears, read: Mus musculus, P388, 720 h, CDF1 (mixed sex), 15 mg/kg, read-out: % T/C (mean survival time treated/control).

In general, IC50 refers to the point on the concentration scale where inhibition reaches its midpoint. Regarding `COCOc1cccc2c1C1(CC2)C(=O)c2c(O)c3c(c(O)c2C1=O)C(=O)C(N)=CC3=O` (centres unmarked) [Example 14, 6-amino-2',3'-dihydro-7'-(methoxymethoxy)-1H-indene-1'-spiro-2-[4,9-dihydroxy-2H-benz[f]-indene-1,3,5,8-tetrone]], the IC50 in the data set on human lung (A549) was below 0.03 µg/mL; in data set [1] it was 0.03 µg/mL (≈ 0.0689 µM); with murine melanoma (B16), 0.03 µg/mL (≈ 0.0689 µM); in data set [2], 0.03 µg/mL (≈ 0.0689 µM); in data set [3], 0.03 µg/mL (≈ 0.0689 µM); in data set [4], 0.03 µg/mL (≈ 0.0689 µM).
Turning to `CCNC1=CC(=O)c2c(O)c3c(c(O)c2C1=O)C(=O)C1(CCc2cccc(O)c21)C3=O` (centres unmarked) [Example 15, 2',3'-Dihydro-6-ethylamino-7'-hydroxy-1H-indene-1'-spiro-2-[4,9-dihydroxy-2H-benz[f]-indene-1,3,5,8-tetrone]], the IC50 was below 0.03 µg/mL in the data set with human lung (A549); 0.05 µg/mL (≈ 0.119 µM) in data set [1]; 0.03 µg/mL (≈ 0.0715 µM) in the data set with murine melanoma (B16); 0.03 µg/mL (≈ 0.0715 µM) in data set [2]; 0.03 µg/mL (≈ 0.0715 µM) in data set [3]; 0.05 µg/mL (≈ 0.119 µM) in data set [4]. Besides, the “AWC (average weight change per mouse)” value in the data set with p388 murine leukemia (CDF1 (mixed sex), 5 mg/kg) was -0.1; in the data set with p388 murine leukemia (CDF1 (mixed sex), 15 mg/kg), -0.2. Moreover, in the data set on p388 murine leukemia (CDF1 (mixed sex), 45 mg/kg), the “% T/C (mean survival time treated/control)” value is listed as “Toxic”. For the same compound, in the data set with p388 murine leukemia (setting [5]), the response vs control in vivo at 5 mg/kg came out at 100%. In addition, in the data set with p388 murine leukemia (setting [6]), the response vs control in vivo at 15 mg/kg was 115%.
With `COCOc1cccc2c1C1(CC2)C(=O)c2c(O)c3c(c(O)c2C1=O)C(=O)C(NCCO)=CC3=O` (centres unmarked) [Example 16, 2',3'-Dihydro-7'-(methoxymethoxy)-1H-indene-1'-spiro-[4,9-dihydroxy-6-(2-hydroxyethylamino)-2H-benz[f]indene-1,3,5,8-tetrone]], the IC50 in the data set with human lung (A549) was below 0.03 µg/mL; in data set [1], 0.04 µg/mL (≈ 0.0834 µM); with murine melanoma (B16) it was 0.03 µg/mL (≈ 0.0626 µM); in data set [2], 0.05 µg/mL (≈ 0.104 µM); in data set [3], 0.06 µg/mL (≈ 0.125 µM); in data set [4], 0.04 µg/mL (≈ 0.0834 µM). For the same compound, the “AWC (average weight change per mouse)” value in the data set with p388 murine leukemia (CDF1 (female only), 3.3 mg/kg) is given as -0.1; in the data set on p388 murine leukemia (CDF1 (female only), 10 mg/kg) it was -1.1; with p388 murine leukemia (CDF1 (female only), 30 mg/kg), -2.6. Also, the response vs control in vivo at 3.3 mg/kg in the data set with p388 murine leukemia (Mus musculus, P388, 720 h, CDF1 (female only), 3.3 mg/kg, read-out: % T/C (mean survival time treated/control)) turned out to be 95%. Besides, the response vs control in vivo at 10 mg/kg in the data set on p388 murine leukemia (Mus musculus, P388, 720 h, CDF1 (female only), 10 mg/kg, read-out: % T/C (mean survival time treated/control)) came out at 95%. The response vs control in vivo at 30 mg/kg in the data set with p388 murine leukemia (Mus musculus, P388, 720 h, CDF1 (female only), 30 mg/kg, read-out: % T/C (mean survival time treated/control)) came out at 130%.
As to `COCOc1cccc2c1C1(CC2)C(=O)c2c(O)c3c(c(O)c2C1=O)C(=O)C(Nc1ccccc1)=CC3=O` (centres unmarked) [Example 18, 2',3'-Dihydro-7'-(methoxymethoxy)-1H-indene-1,-spiro-2-[6-(phenylamino)-4,9-dihydroxy-2H-benz[f]indene-1,3,5,8-tetrone]], the half-inhibitory concentration (IC50) with human lung (A549) turned out to be 0.08 µg/mL (≈ 0.156 µM); in data set [1], 0.06 µg/mL (≈ 0.117 µM); with murine melanoma (B16), 0.08 µg/mL (≈ 0.156 µM); in data set [2], 0.09 µg/mL (≈ 0.176 µM); in data set [3], 0.11 µg/mL (≈ 0.215 µM); in data set [4], 0.07 µg/mL (≈ 0.137 µM).
Consider `CCCCCc1cc2cc3c(c(O)c2c(=O)[nH]1)C1(CC3)C(=O)c2c(O)c3c(c(O)c2C1=O)C(=O)C(NCC)=CC3=O` (centres unmarked) [Example 23, 2',6'7'-trihydro-4,9,9'-trihydroxy-3'-(n-pentyl)-6-ethylamino-spiro[2H-benz[f]-indene-2,8'-[8H]cyclopent[g]-isoquinoline]-1,1',3,5,8-pentone], for which the IC50 in the data set with human lung (A549) turned out to be 0.14 µg/mL (≈ 0.252 µM); in data set [1] it was 0.1 µg/mL (≈ 0.18 µM); in the data set on murine melanoma (B16) it was 0.39 µg/mL (≈ 0.701 µM); in data set [2], 0.28 µg/mL (≈ 0.503 µM); in data set [3] it was 0.22 µg/mL (≈ 0.395 µM); in data set [4], 0.1 µg/mL (≈ 0.18 µM). Besides, the “AWC (average weight change per mouse)” value in the data set with p388 murine leukemia (CDF1 (female only), 4 mg/kg) was 1.8; in the data set with p388 murine leukemia (CDF1 (female only), 12 mg/kg), 1.7; with p388 murine leukemia (CDF1 (female only), 36 mg/kg) it was 0.7. Moreover, the response vs control in vivo at 4 mg/kg in the data set on p388 murine leukemia (Mus musculus, P388, 720 h, CDF1 (female only), 4 mg/kg, read-out: % T/C (mean survival time treated/control)) was 100%. Moreover, in the data set with p388 murine leukemia (Mus musculus, P388, 720 h, CDF1 (female only), 12 mg/kg, read-out: % T/C (mean survival time treated/control)), the response vs control in vivo at 12 mg/kg is 95%. Besides, the response vs control in vivo at 36 mg/kg in the data set on p388 murine leukemia (Mus musculus, P388, 720 h, CDF1 (female only), 36 mg/kg, read-out: % T/C (mean survival time treated/control)) worked out at 100%.
For `CN(C)CCNC1=CC(=O)c2c(O)c3c(c(O)c2C1=O)C(=O)C1(CCc2cccc(O)c21)C3=O` (centres unmarked) [Example 24, hydrochloride], the IC50 in the data set on human lung (A549) came out at 0.5 µg/mL; in data set [1], 1.4 µg/mL; in the data set with murine melanoma (B16), 0.4 µg/mL; in data set [2], 0.2 µg/mL; in data set [3], 0.7 µg/mL; in data set [4], 1.1 µg/mL. Moreover, the “AWC (average weight change per mouse)” value in the data set with p388 murine leukemia (CDF1 (mixed sex), 5 mg/kg) is listed as -0.3; in the data set with p388 murine leukemia (CDF1 (mixed sex), 15 mg/kg) it was -0.3; with p388 murine leukemia (CDF1 (mixed sex), 45 mg/kg), -0.9. Also, the response vs control in vivo at 5 mg/kg in the data set with p388 murine leukemia (setting [5]) was determined as 110%. For the same compound, the response vs control in vivo at 15 mg/kg in the data set with p388 murine leukemia (setting [6]) was 110%. In addition, the response vs control in vivo at 45 mg/kg in the data set on p388 murine leukemia (Mus musculus, P388, 720 h, CDF1 (mixed sex), 45 mg/kg, read-out: % T/C (mean survival time treated/control)) was 120%.
Take `COCOc1cccc2c1C1(CC2)C(=O)c2c(O)c3c(c(O)c2C1=O)C(=O)C(NCC(=O)O)=CC3=O` (centres unmarked) [Example 29, 2',3'-Dihydro-7'-(methoxymethoxy)-1H-indene-1'-spiro-2-[6-((carboxymethyl)amino)-4,9-dihydroxy-2H-benz[f]indene-1,3,5,8-tetrone]sodium salt]: the half-inhibitory concentration (IC50) was 1.2 µg/mL in the data set with human lung (A549); 1.6 µg/mL in data set [1]; 0.8 µg/mL with murine melanoma (B16); 0.9 µg/mL in data set [2]; 1 µg/mL in data set [3]; 1 µg/mL in data set [4].
For the compound `CCSC1=C(SCC)C(=O)c2c(O)c3c(c(O)c2C1=O)C(=O)C1(CCc2cccc(OCOC)c21)C3=O` [Example 30], the IC50 was 7 µg/mL (≈ 12.9 µM) in the data set with human lung (A549); above 16 µg/mL in data set [1]; 1.8 µg/mL (≈ 3.33 µM) in the data set with murine melanoma (B16); 1.2 µg/mL (≈ 2.22 µM) in data set [2]; 3 µg/mL (≈ 5.55 µM) in data set [3]; 2.2 µg/mL (≈ 4.07 µM) in data set [4].
Turning to `COCOc1cccc2c1C1(CC2)C(=O)c2c(O)c3c(c(O)c2C1=O)C(=O)C(Sc1ccccc1)=C(Sc1ccccc1)C3=O` [Example 31, 2',3'-Dihydro-7'-(methoxymethoxy)-1H-indene-1'-spiro-2-[6,7-di(phenylmercapto)-4,9-dihydroxy-2H-benz[f]indene-I,3,5,8-tetrone]], the IC50 (with human lung (A549); in data set [1]; in the data set with murine melanoma (B16); in data set [2]; in data set [3]; in data set [4]) was above 16 µg/mL throughout.
As for `O=C1C(Sc2ccccc2)=C(Sc2ccccc2)C(=O)c2c(O)c3c(c(O)c21)C(=O)C1(CCc2cccc(O)c21)C3=O` [Example 32, 2',3'-Dihydro-7'-hydroxy-1H-indene-1'-spiro-2-[4,9-dihydroxy-6,7-di(phenylmercapto)-2H-benz[f]indene-1,3,5,8-tetrone]], the IC50 (in the data set on human lung (A549); in data set [1]; with murine melanoma (B16); in data set [2]; in data set [3]; in data set [4]) was above 16 µg/mL in each case.
